melting point | Compound
108 to 110 °C | O=C(O)CCNC(=O)NCCCCC1CCSS1 (stereo unspecified)
113 to 114 °C | CCCNC(=O)CCn1ccc(=O)c(O)c1
114 to 116 °C | CC(C)Nc1cccnc1N1CCN(C(=O)c2ccc(C(=O)NCCN3CCOCC3)cc2)CC1
233 to 235 °C | Cc1cccc2c1NC(=O)c1cccnc1N2
74 °C | COc1ccc(-c2ccc(OC3SCC(OC(C)=O)C(OC(C)=O)C3OC(C)=O)cn2)cn1 (stereo unspecified)
255 to 256 °C | O=C1CC(c2sccc2Cl)=Nc2ccc(-c3ccc(F)cc3)cc2N1
105 °C | CCOC(=O)C1=C(C)NC(NC(C)=O)=C(C(=O)OCC)C1C (stereo unspecified)
220 to 221 °C | COc1ccc(NC(=O)c2ccc(-c3ccc(-c4noc(C)n4)cc3C)cc2)cc1C=CCN(C)C
161 to 163 °C | NC(=O)Cc1ccc(Oc2ccccc2)cc1
279 to 282 °C | O=C(Nc1cccc(CC(F)(F)F)c1)Nc1ccc2c(c1)COC2=O
88 to 102 °C | N#CC(C=O)c1ccc(NS(=O)(=O)c2cccc(Cl)c2Cl)cc1 (stereo unspecified)
175 °C | O=C(c1ccc(I)cc1)c1ccc2c(c1)c(-c1cccc(Cl)c1)nc1nnnn12
110 to 111 °C | CCCn1nc(-c2ccc(OC)cc2)c2cccc(-c3ccc(F)cc3)c21
83.4 to 85.3 °C | Nc1ccccc1Cn1cc(C(F)(F)F)ccc1=O
223 to 224 °C | Cc1ccc(C2CNCc3[nH]c4ccccc4c32)cc1 (stereo unspecified)
100 °C | CC(=O)C=C(C)Nc1ccccc1C#N
182 to 184 °C | CC(=O)Nc1ccc2nc(CN3CCCCC3)ccc2c1
121 to 123 °C | CCCC(NS(=O)(=O)c1ccc(Cl)cc1)C(=S)Nc1ccc(CC(=O)OCC)cc1 (racemic)
78 to 80 °C | CCC(CCSc1cc(OC)c(O)c(OC)c1)(c1cccs1)N(C)C (stereo unspecified)

melting point | Compound
136 to 137 °C | O=C1Nc2cc(F)ccc2C1CCCCN1CCN(c2ccccn2)CC1 (stereo unspecified)
284 to 285 °C | ON1C=CN(c2ccccc2)N1
211 °C | N#Cc1c(N2CCNCC2)c2cccnc2n(Cc2ccccc2)c1=O
149 to 150 °C | CC#Cc1c(-c2ccc(S(C)(=O)=O)cc2)cnn(-c2ccc(F)c(F)c2)c1=O
201 to 203 °C | Nc1nc(Cl)cc(NC(CO)C2C=CCC2)n1 (stereo unspecified)
41.6 to 43 °C | CCN(CC)c1nc(C)nc2scnc12
93 to 94 °C | CON1CCC2(CC1)C(=O)C(Cl)(c1cc(C)c(C)cc1Cl)C(=O)N2C (stereo unspecified)
101 to 105 °C | Cc1noc(-c2cnc(NC(=O)[C@H](CC3CCCC3)c3ccc(S(C)(=O)=O)c(Cl)c3)cn2)n1
80 to 82 °C | CCCCCCCOc1ccc(COc2ccc3c(c2)CC(CC(=O)O)C3OC)cc1 (stereo unspecified)
139 to 141 °C | CCN(CC)C(=O)c1cc(-c2ccccc2)ccc1-c1ccc(OC)cc1
166 to 168 °C | CC1CCC(NC(=O)NS(=O)(=O)c2ccc(CCNC(=O)N3CCCCC3=O)cc2)C1 (stereo unspecified)
305 °C | CCN1CCN(Cc2ccc(-c3cc4c(NCc5ccc(OC)nc5)ncnc4[nH]3)cc2)CC1
272 to 275 °C | COc1ccc2nc(C(=O)O)c(OCc3ccccc3)cc2c1
215 to 217 °C | O=C(O)C1CCCc2c(-c3ccc(Cl)cc3)noc2C1 (stereo unspecified)
267 °C | COc1ccc(-c2[nH]nc3c2C(=O)c2c(NC(=O)C4CCCC4)cccc2-3)cc1
236 to 237 °C | O=C(O)c1sc2ccc3c(c2c1Cl)O[C@@H](CO)CO3
66 to 74 °C | CC(=CC(C)C)c1ccccc1NC(=O)c1cn(C)nc1C(F)(F)F
127 to 129 °C | COc1cc(C(C#Cc2c(C)nc(N)nc2N)OC)cc(OC)c1OC (stereo unspecified)
215 to 217 °C | O=C(O)C=Cc1ccc2cc[nH]c2c1

melting point | Compound
75 to 77 °C | COC(=O)c1ccc(Cl)cc1NC(=O)CSc1cccc(C)c1
139 to 140 °C | CCOc1cnc2nc(SCc3ccccc3)nn2c1
157 to 159 °C | CC(=O)Nc1ccc(CC(=O)O)cc1Br
109 to 117 °C | Nc1nc(NC2CCCCC2)nc2c1ncn2C1CCCCC1
240 to 242 °C | Cc1cccc(Br)c1C(=O)N[C@@H](Cc1ccc(-c2c(C)n(C)c(=O)n(C)c2=O)cc1)C(=O)O
108 to 111 °C | CCCOc1ccc(S)cc1C(N)=O
157 to 160 °C | COC(=O)/C(C#N)=C/c1cc(OC)c(OCCCl)cc1[N+](=O)[O-]
168 to 169 °C | CCOCc1nc2c(N)nc(C)c(C)c2n1CCC1CCN(C(=O)C(C)C)CC1
214 to 220 °C | Cc1nc2ccc(S(=O)(=O)n3c(CCCC(=O)O)cc4cc(C(F)(F)F)ccc43)cc2o1
140 to 142 °C | CN(C)C(=O)Sc1ccc2ccncc2c1Cl
227 to 228 °C | O=C(CCc1cccc(C(F)(F)F)c1)NNC(=O)c1ccc2[nH]ncc2c1
141 to 142 °C | CCOC(=O)C(=O)CC(=O)c1cn(Cc2ccccc2)c2ccccc2c1=O
190 to 193 °C | COC(=O)c1cc(-c2ccc(S(C)(=O)=O)cc2)n(-c2ccccc2)n1
104 to 106 °C | N#CC(C#N)=C1N(CCCN2CCOCC2)CCN1C1CCN(C2CC2)CC1
234 to 236 °C | CC(C)Oc1ccc2nc3ccc(C#N)cn3c(=O)c2c1
55 to 57 °C | C=C(C)C[C@H]1CC(C)=CCN1c1ccccc1
117 to 119 °C | CCCSc1sc(C(=O)N2CCCC2)c2c1C(=O)CC(C)(C)C2
145 to 147 °C | CCOC(=O)c1cnn2c1c(Nc1ccccc1)nc1ccccc12
> 275 °C | O=S(=O)(O)c1cccc(NCc2cccc(C(F)(F)F)c2)c1

Continued, compound first:

Compound | melting point
CC(=O)c1ccc(Nc2cccc(-c3cncnc3)c2)c([N+](=O)[O-])c1 | 131 to 132 °C
COc1cc(Oc2cccc(C(F)(F)F)c2)nc(C(=O)NN=CCC#N)c1 | 98 to 100 °C
O=C(O)c1ccc(-c2cnc3c(c2)N(Cc2c(F)ccc(F)c2Cl)C(=O)CN3)cc1 | > 300 °C
COc1cc2ncnc(N3CCN(C(=O)Nc4ccc(OC(C)C)cc4)CC3)c2cc1OC | 220 to 222 °C
O=C1NCCN(N=Cc2ccccc2)C1=O | 231 to 234 °C
COc1ccc2c(c1)N(c1ccc(F)cc1)C(=O)C2(C)NC(=O)OCc1ccccc1 (stereo unspecified) | 167 to 169 °C
COCC(=O)c1cnc2c(OC)cccc2c1Cl | 96 to 98 °C
Nc1ccccc1C(=O)NC(=O)Nc1ccc(Oc2ncc(Br)cn2)c(Cl)c1 | 196 to 200 °C
COC(=O)C1=C(c2ccc3c(c2)OCO3)c2ccc(OCc3ccccc3)cc2C1=O | 140 to 141 °C
COc1ccc(-c2c3nn(-c4ccc(OC)cc4)c(=O)c-3c[nH]c2C)cc1 | 274 to 282 °C
COC(=O)Cn1c(=O)c2ccccc2n(CCCCl)c1=O | 144 to 146 °C
CCOC(=O)CON1C(=O)C(=O)N(c2ccccc2SC)C1=S | 112 to 114 °C
COc1c(C)cc(-c2cncc(OC3SCC(O)C(O)C3O)c2)cc1C (stereo unspecified) | 173 °C
O=C(Cc1ccc(Cl)c(Cl)c1)N1CCNC2CCCCC21 (stereo unspecified) | 119 to 120 °C
NC1=NN(c2ccc(C(=O)C(F)(F)F)cc2)C(c2ccccc2)C1 (stereo unspecified) | 214 to 216 °C
CC(=O)Nn1cc(-c2cccnc2)nc1Cl | 129 to 131 °C
Cc1noc2cc3c(cc12)C1(CO3)C(=O)N(Cc2ccc(-c3ccno3)cc2)c2ccccc21 (stereo unspecified) | 192 to 194 °C
COc1ccc(S(=O)(=O)N(C)C)c([N+](=O)[O-])c1 | 90 to 92 °C
CCc1cccc2c3c([nH]c12)C(CC)(CC(=O)OC)OCC3O (stereo unspecified) | 117 to 118 °C
CCOC(=O)Cc1c(C)[nH]c2ccc(F)cc12 | 61 to 62 °C
Cc1cccc(C)c1Oc1nc(Cl)nc(Oc2c(C)cccc2C)n1 | 161 to 162 °C
CN(CCCc1ccc(F)cc1)[C@H]1CC[C@H](c2ccc3[nH]c(=O)oc3c2)CC1 | 62 to 65 °C

Compound | melting point
O[C@H](COc1cccc2[nH]ccc12)CN1CC=C(c2c[nH]c3c(Cl)c(Cl)ccc23)CC1 | 140 to 145 °C
O/N=C1\CCCc2c1c1ccccc1n2-c1ccc(OCc2ccccc2)cc1 | 241 to 243 °C
Cc1ccc(N2C(=O)C(O)=C(C(=O)c3ccc(-c4ccccc4)cc3)C2c2ccc(OC(F)(F)F)cc2)nn1 (stereo unspecified) | 226 to 232 °C
CCOC(=O)COCc1nnc(S)n1C | 86 to 88 °C
CC(O)C1C(=O)N2C(C(=O)OCc3ccccc3)=CCC12 (stereo unspecified) | 94 to 99 °C
Cc1ccccc1NC(=O)C1Sc2ccccc2N(C)C1=O (stereo unspecified) | 187 to 188 °C
CCC1(CC)c2cc(C)c(C)cc2C(CC)(CC)N1OC(C)=O | 80 to 82 °C
COC(=O)C=CC(=O)c1cc(F)ccc1N | 80 to 84 °C
O=C(OCc1cc(OCCCO)c(OCCCO)c(OCCCO)c1)c1ccccc1 | 54 to 55 °C
COC(C)CN(C)CC=CC(=O)Nc1cc2c(Nc3ccc(F)c(Cl)c3)ncnc2cc1OCC1CC1 (stereo unspecified) | 123 to 125 °C
CN1OCCN(c2ccc([N+](=O)[O-])c(C(F)(F)F)c2)C1=O | 104 to 105 °C
Cc1cccc2nc(-c3ccccc3)n(C3CCC(=O)NC3=O)c(=O)c12 (stereo unspecified) | 298 to 300 °C
CNCc1cc(=O)oc2cc(OC)ccc12 | 109 to 110 °C
O=C(NC(Cc1ccc(OCc2ccccc2)cc1)C(=O)O)c1ccc2nc(-c3ccc(Cl)cc3)cn2c1 (stereo unspecified) | 278 to 280 °C
CC(C)C[C@H](NC(=O)OCc1ccccc1)C(=O)N[C@@H](Cc1ccccc1)C(=O)CSCc1ccc(Cl)s1 | 105 to 107 °C
COc1ccc2nc(COc3ccc4c(c3)C(SCCC(=O)O)c3ccccc3CO4)ccc2c1 (stereo unspecified) | 174 to 175 °C
COCOc1ccc(CCCO)c(Oc2ncc(C(F)(F)F)cc2Cl)c1 | 92.5 to 93.5 °C
C[C@@H](S[C@H]1CC[C@H](/C=C/c2ccc(Cl)cc2)CC1)[C@](O)(Cn1cncn1)c1ccc(F)cc1F | 64 to 66 °C
CC(=O)OC1CC(OC(C)=O)C2(C)C(C1)C(Br)C(Br)C1C3CCC(C(C)CCCC(C)C)C3(C)CCC12 (stereo unspecified) | 155 to 156 °C
CCCc1c(OCCCOc2ccc(CC(=O)O)cc2F)ccc(C(C)=O)c1O | 121 to 123 °C
O=C(NCCO)/C(=C/c1ccc(OC(F)(F)F)cc1)NC(=O)c1ccc(OCCC(F)(F)F)cc1 | 159 to 160 °C
CN1CCN(c2nc3sc4c(NCc5ccccn5)ncnc4c3c3c2COC(C)(C)C3)CC1 | 218 to 219 °C

Reference: a melting point compilation (Tetko et al.; mined from patent text by program, amines drawn as free bases though some values may be those of a salt)
